In publication PMC8213153 (PLoS ONE, 2021):
Converted amounts (≈) assume the structure as drawn. Read-outs that look alike come from different tables or passages of the source.

Columns and labels:
[1] = Cytotoxicity (MTT) assay of single and dual combinatory drugs; assay type: cell-based; details: human; for viability at 48 h, 0.2 μg/mL / viability at 48 h, 2 μg/mL / viability at 48 h, 10 μg/mL / viability at 48 h, 100 μg/mL / viability at 48 h, 400 μg/mL: read-out: Cell Viability (%)
Experimental: Each tablet containing drugs was triturated and mixed until homogenous. Approximately 50 mg equivalent mass of drugs were weighed and added to dimethyl sulfoxide in order to solubilize the drugs. The suspension was sonicated in a water bath for 15 minutes before being added to Rosewell Park Memorial Institute (RPMI) media, sonicated again and vortexed to mix it until homogenous. The suspension was then filtered through a polycarbonate membrane with a pore size of 0.45 μm and then a pore size of 0.22 μm under aseptic conditions. The filtrate was mixed with 10% foetal bovine serum and penicillin streptomycin before being vortexed to produce a homogenous mixture to be used as a stock solution. The samples were prepared by diluting the stock solution of each drug with RPMI complete media at an appropriate level of dilution to produce a determined concentration. The dual combinatory drugs mixtures were prepared by mixing appropriate amounts of two drug stock solutions in order to produce a final concentration at the required level. The combinatory drugs were evaluated at both constant and non-constant ratios to evaluate their effects on the cytotoxicity, including; antagonistic, synergistic, or additive. A constant ratio of the mixture was achieved by adding drug solutions at the same ratio, thereby increasing each drug concentration, to produce dose escalation. In contrast, at a non-constant ratio, a fixed determined concentration of drug was added to increased doses of other drug solution in order to produce different levels of drug concentration.
The cytotoxic concentration (CC50) of drugs was performed by means of MTT assay at the Stem Cell Research and Development Center, Universitas Airlangga using human umbilical cord mesenchymal stem cells which had been obtained from human placenta tissue as approved by the Ethical Committee of Universitas Airlangga Hospital (Certificate number 101/KEH/2019 dated January 10, 2019). The cells were prepared as the primary cell culture and used for the cytotoxicity assay because of their sensitivity to chemicals. Cells were seeded into 96-well microplates at a concentration of 1x10^3 cells/well in 100 μL Alpha Minimum Essentials Medium (α-MEM, Gibco, USA) supplemented with 10% foetal bovine serum, 1% penicillin-streptomycin and 1% amphotericin-B. The plates were then incubated in a CO2 incubator at 37°C with 5% CO2 for 24 hours, at which point, the supernatant was replaced with α-MEM containing drugs at each concentration and incubated for a further 48 hours. Approximately 25μL of 3-(4,5-Dimethylthiazol-2-yl)-2,5-diphenyl tetrazolium-bromide (MTT) reagent at a concentration of 5mg/mL was subsequently added to each well and incubated for four hours at 37°C with 5% CO2. Purple formazan crystals were formed and observed under an inverted microscope. Dimethyl sulfoxide was added to each well with the complete solubilisation of formazan crystals subsequently being observed. The greater the number of formazan crystals formed, the lower the toxicity of the samples which were read for optical density of formazan using a multi reader at a measurement wavelength of 595 nm (Promega Glomax, USA). The CC50 value was analyzed by CompuSyn software (the ComboSyn Inc., accessed from www.combosyn.com).
In this study, the cytotoxicity assay was evaluated for single and dual combinatory drugs during a period of 48 hours of drug incubation. This assay was intended to evaluate the toxicity of dual combinatory drugs on normal cells. The combination ratios were calculated taking into consideration the usual therapeutic doses and plasma peak concentrations of the drugs. To determine this cytotoxicity, the drugs were mixed at both constant and non-constant ratios.

SARS-CoV-2 virus = experiment: microbe, parasite or virus in culture; assay type: cell-based; details: for Drug concentration that produced an undetected virus copy number: at 24, 48, and/or 72 hours' incubation; for IC50: Severe acute respiratory syndrome coronavirus 2, Vero
IL-10 = IL-10 level of virus-infected Vero cells (ELISA); assay type: cell-based
Experimental: (§1) To enable measurement of IL-6, IL-10 and TNF-α levels, the culture medium of the treated cells was collected in sterile micro-tubes and centrifuged at 3,500 rpm for 20 minutes. The supernatants were carefully collected and diluted with aquadest at a 1:5 volume ratio and vortexed until homogenous. The samples were deposited onto a well-plate, added to ELISA reagents (Bioassay Technology Laboratory, Shanghai, China), and incubated at 37°C for 60 minutes. Reagent substrate solution was then added to the well and incubated for ten minutes at 37°C. The samples were measured for antigen concentration using the optical density (OD) plotted into the standard curves of IL-6, IL-10, and TNF-α.

IL-6 = IL-6 level of virus-infected Vero cells (ELISA); assay type: cell-based
Experimental: as §1

TNF-α = TNF-α level of virus-infected Vero cells (ELISA); assay type: cell-based
Experimental: as §1

[2] = cited from earlier work
[3] = FAVIPIRAVIR-AZITHROMYCIN series
[4] = HYDROXYCHLOROQUINE-FAVIPIRAVIR series

SMILES: CC[C@H]1OC(=O)[C@H](C)[C@@H](O[C@H]2C[C@@](C)(OC)[C@@H](O)[C@H](C)O2)[C@H](C)[C@@H](O[C@@H]2O[C@H](C)C[C@H](N(C)C)[C@H]2O)[C@](C)(OC)C[C@@H](C)C(=O)[C@H](C)[C@@H](O)[C@]1(C)O [CLA, Clarithromycin]
- CC50 at 48 h ([1]; LOPIRITO-CLA experiment (Fig 5), 48 hours, CompuSyn, n = 3, read-out: CC50): 2280 mg/L
- viability at 48 h, 0.2 μg/mL ([1]; LOPIRITO-CLARITHROMYCIN series): 134%
- viability at 48 h, 2 μg/mL ([1]; LOPIRITO-CLARITHROMYCIN series): 92.6%
- viability at 48 h, 10 μg/mL ([1]; LOPIRITO-CLARITHROMYCIN series): 79.4%
- viability at 48 h, 100 μg/mL ([1]; LOPIRITO-CLARITHROMYCIN series): 92.6%
- viability at 48 h, 400 μg/mL ([1]; LOPIRITO-CLARITHROMYCIN series): 74.3%
- Virus Titer (SARS-CoV-2 virus; 0.5 μg/mL, 24-h): 38.47 viral protein fg/mL
- Virus Titer (SARS-CoV-2 virus; 8 μg/mL, 24-h): 38.03 viral protein fg/mL
- Virus Titer (SARS-CoV-2 virus; 8 μg/mL, 48-h): 39.09 viral protein fg/mL
- Virus Titer (SARS-CoV-2 virus; 8 μg/mL, 72-h): 37.46 viral protein fg/mL
- Drug concentration that produced an undetected virus copy number (SARS-CoV-2 virus; MoI 0.04): 8 µg/mL
- IC50 (SARS-CoV-2 virus; 24h, MoI 0.04): 4.6 mg/L (≈ 6.15 µM)
- IC50 (SARS-CoV-2 virus; 48h, MoI 0.04): 0.6 mg/L (≈ 0.802 µM)
- IC50 (SARS-CoV-2 virus; 72h, MoI 0.04): 0.9 mg/L (≈ 1.2 µM)
- IL-10 (IL-10; 0.5 μg/mL, 24-h): 36.80 ± 1.13 pg/mL
- IL-10 (IL-10; 0.5 μg/mL, 48-h): 105.49 ± 1.32 pg/mL
- IL-10 (IL-10; 0.5 μg/mL, 72-h): 507.18 ± 0.00 pg/mL
- IL-10 (IL-10; 4 μg/mL, 24-h): 36.80 ± 0.08 pg/mL
- IL-10 (IL-10; 4 μg/mL, 48-h): 58.15 ± 1.41 pg/mL
- IL-10 (IL-10; 4 μg/mL, 72-h): 498.75 ± 0.00 pg/mL
- IL-10 (IL-10; 8 μg/mL, 24-h): 24.75 ± 0.58 pg/mL
- IL-10 (IL-10; 8 μg/mL, 48-h): 79.10 ± 0.00 pg/mL
- IL-10 (IL-10; 8 μg/mL, 72-h): 445.89 ± 0.07 pg/mL
- IL-10 (IL-10; 8 μg/mL, 48h): ↗↗ (8 μg/mL; 48h)
- IL-10 levels (in words) (IL-10; Table 5): increased
- IL-6 (IL-6; 0.5 μg/mL, 24-h): 15.61 ± 0.85 ng/L
- IL-6 (IL-6; 0.5 μg/mL, 48-h): 28.56 ± 0.62 ng/L
- IL-6 (IL-6; 0.5 μg/mL, 72-h): 48.22 ± 0.35 ng/L
- IL-6 (IL-6; 4 μg/mL, 24-h): 14.85 ± 0.51 ng/L
- IL-6 (IL-6; 4 μg/mL, 48-h): 30.07 ± 0.09 ng/L
- IL-6 (IL-6; 4 μg/mL, 72-h): 51.13 ± 0.94 ng/L
- IL-6 (IL-6; 8 μg/mL, 24-h): 15.61 ± 0.57 ng/L
- IL-6 (IL-6; 8 μg/mL, 48-h): 34.67 ± 0.50 ng/L
- IL-6 (IL-6; 8 μg/mL, 72-h): 64.93 ± 2.50 ng/L
- IL-6 (IL-6; 1, 4, 8 μg/mL, 24, 48, 72h): ↘↘ (1, 4, 8 μg/mL; 24, 48, 72h)
- IL-6 (in words) (IL-6; Table 5): reduced
- TNF-α (TNF-α; 0.5 μg/mL, 24-h): 20.39 ± 0.57 pg/mL
- TNF-α (TNF-α; 0.5 μg/mL, 48-h): 426.37 ± 1.40 pg/mL
- TNF-α (TNF-α; 0.5 μg/mL, 72-h): 612.06 ± 1.54 pg/mL
- TNF-α (TNF-α; 4 μg/mL, 24-h): 100.04 ± 1.44 pg/mL
- TNF-α (TNF-α; 4 μg/mL, 48-h): 404.07 ± 0.10 pg/mL
- TNF-α (TNF-α; 4 μg/mL, 72-h): 609.56 ± 0.14 pg/mL
- TNF-α (TNF-α; 8 μg/mL, 24-h): 43.92 ± 1.13 pg/mL
- TNF-α (TNF-α; 8 μg/mL, 48-h): 382.62 ± 0.86 pg/mL
- TNF-α (TNF-α; 8 μg/mL, 72-h): 609.56 ± 0.14 pg/mL
- TNF-α (TNF-α; 24, 48, and 72 hours, cell without concentration): No effects
- TNF-α levels (in words) (TNF-α; Table 5): no effects
- Peak Plasma Concentration ([2]; oral 250 mg Clarithromycin twice a day): 1 µg/mL
- Peak Plasma Concentration ([2]; oral 500 mg Clarithromycin twice a day): 2.41 µg/mL

SMILES: NC(=O)c1nc(F)c[nH]c1=O [FAVI, Favipiravir]
- CC50 at 48 h ([1]; CC50): > 400 mg/L
- viability at 48 h, 0.2 μg/mL [1, 3]: 105%
- viability at 48 h, 2 μg/mL [1, 3]: 104%
- viability at 48 h, 10 μg/mL [1, 3]: 109%
- viability at 48 h, 100 μg/mL [1, 3]: 110%
- viability at 48 h, 400 μg/mL [1, 3]: 126%
- viability at 48 h, 0.2 μg/mL [1, 4]: 92.5%
- viability at 48 h, 2 μg/mL [1, 4]: 71.9%
- viability at 48 h, 10 μg/mL [1, 4]: 72.4%
- viability at 48 h, 100 μg/mL [1, 4]: 66.2%
- viability at 48 h, 400 μg/mL [1, 4]: 66.8%
- Virus Titer (SARS-CoV-2 virus; 10 μg/mL, 48-h): 37.37 viral protein fg/mL
- Virus Titer (SARS-CoV-2 virus; 15 μg/mL, 24-h): 38.87 viral protein fg/mL
- Drug concentration that produced an undetected virus copy number (SARS-CoV-2 virus; MoI 0.04): 37.5 µg/mL
- IC50 (SARS-CoV-2 virus; 24h, MoI 0.04): 9.6 mg/L (≈ 61.1 µM)
- IC50 (SARS-CoV-2 virus; 48h, MoI 0.04): 18.6 mg/L (≈ 118 µM)
- IC50 (SARS-CoV-2 virus; 72h, MoI 0.04): < 10 mg/L
- Results (virus detection) (SARS-CoV-2 virus; at the drug concentration of the same line of Table 4, MoI 0.04): 24, 48, 72h virus still detected with decreasing number
- IL-10 (IL-10; 10 μg/mL, 24-h): 31.38 ± 1.80 pg/mL
- IL-10 (IL-10; 10 μg/mL, 48-h): 125.32 ± 1.57 pg/mL
- IL-10 (IL-10; 10 μg/mL, 72-h): 465.82 ± 0.57 pg/mL
- IL-10 (IL-10; 15 μg/mL, 24-h): 27.97 ± 0.29 pg/mL
- IL-10 (IL-10; 15 μg/mL, 48-h): 100.89 ± 1.28 pg/mL
- IL-10 (IL-10; 15 μg/mL, 72-h): 411.24 ± 0.24 pg/mL
- IL-10 (IL-10; 10, 15 μg/mL, 48, 72h): ↗↗ (10, 15 μg/mL; 48, 72h)
- IL-6 (IL-6; 10 μg/mL, 24-h): 14.09 ± 1.53 ng/L
- IL-6 (IL-6; 10 μg/mL, 48-h): 37.28 ± 0.37 ng/L
- IL-6 (IL-6; 10 μg/mL, 72-h): 60.21 ± 0.49 ng/L
- IL-6 (IL-6; 15 μg/mL, 24-h): 22.18 ± 1.09 ng/L
- IL-6 (IL-6; 15 μg/mL, 48-h): 39.75 ± 1.67 ng/L
- IL-6 (IL-6; 15 μg/mL, 72-h): 68.61 ± 1.04 ng/L
- IL-6 (IL-6; to 100 μg/mL, 48h): ↘↘ (to 100 μg/mL; 48h)
- TNF-α (TNF-α; 10 μg/mL, 24-h): 3.09 ± 1.23 pg/mL
- TNF-α (TNF-α; 10 μg/mL, 48-h): 416.51 ± 1.28 pg/mL
- TNF-α (TNF-α; 10 μg/mL, 72-h): 711.37 ± 0.70 pg/mL
- TNF-α (TNF-α; 15 μg/mL, 24-h): 98.18 ± 1.55 pg/mL
- TNF-α (TNF-α; 15 μg/mL, 48-h): 467.47 ± 3.11 pg/mL
- TNF-α (TNF-α; 15 μg/mL, 72-h): 725.48 ± 3.51 pg/mL
- TNF-α (TNF-α; 10 ppm, 24h): ↘↘ (10 ppm; 24h)
